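The compound was tested at five concentrations on cells cultured in 96-well plates, with a 48-hour exposure period. The concentration for 50% growth inhibition is given as GI50.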 Calls of active or inactive are those of the source. No stated cut-off is given here; in the data, active = GI50 up to about 1.1 µM and inactive = higher. A value given as a limit tells only on which side of the number the result lay.

From ChEMBL document CHEMBL1201862, “PubChem BioAssay data set” (2004) come the findings set out here.

Some test systems named below: M19-MEL; OVCAR-8; T47D; MDA-MB-231; DU-145; MCF7; LOX IMVI; U-251; HCT-116; OVCAR-4; SK-MEL-5; HT-29; SNB-19; CCRF-CEM; MDA-N; OVCAR-5; SR; NCI-H23; IGROV-1; EKVX.
What all share (assay): DTP human tumour cell line panel, 48 h

For `CCOC(=O)/C(=C\c1ccccc1)C(=O)CCN1CCOCC1`, the GI50 (in general, the concentration that inhibits growth by half) in the assay on M19-MEL is 3.62 µM (inactive); in the assay on OVCAR-8 it was 4.06 µM (inactive); in the assay with T47D, 16.3 µM (inactive); in the assay on MDA-MB-231 it was 13.5 µM (inactive); with DU-145 it was 17.2 µM (inactive); in the assay on MCF7 it was 5.2 µM (inactive). Further, the GI50 was 2.8 µM (inactive) in the assay with LOX IMVI; 8.55 µM (inactive) with U-251; 8.97 µM (inactive) in the assay with HCT-116; 12.4 µM (inactive) in the assay on OVCAR-4; 12.6 µM (inactive) in the assay on SK-MEL-5; 6.3 µM (inactive) in the assay on HT-29. Also, the GI50 in the assay on SNB-19 is 16.2 µM (inactive); with CCRF-CEM it was 1.29 µM (inactive); in the assay on MDA-N it was 6.03 µM (inactive); in the assay on OVCAR-5 it was 17.4 µM (inactive); in the assay on SR, 2.1 µM (inactive); in the assay on NCI-H23 it was 8.85 µM (inactive). Also, the GI50 with IGROV-1 was 15.2 µM (inactive); with EKVX, 15.6 µM (inactive).

Take `O=c1oc2ccccc2c(O)c1C(C/C(CCN1CCCC1)=N/O)c1ccccc1` (stereo unspecified): the GI50 with M19-MEL is > 100 µM (inactive); in the assay on OVCAR-8, > 100 µM (inactive); with T47D, 7.87 µM (inactive); in the assay with MDA-MB-231 it was > 100 µM (inactive); in the assay with DU-145, > 100 µM (inactive); with MCF7, > 100 µM (inactive). Besides, the GI50 in the assay with LOX IMVI, in the assay with U-251, with HCT-116, with OVCAR-4, in the assay with SK-MEL-5 and in the assay on HT-29 was > 100 µM (inactive) in each case. Also, the GI50 in the assay on SNB-19, in the assay with MDA-N, with OVCAR-5, with SR, in the assay on NCI-H23 and with IGROV-1 was > 100 µM (inactive) in each case. For the same compound, in the assay with EKVX, the GI50 is > 100 µM (inactive).

`CC(C(=O)O)/C(=C\c1ccc2c(c1)OCO2)C(=O)O` (stereo unspecified): the GI50 with M19-MEL, with OVCAR-8, in the assay with T47D, in the assay on MDA-MB-231, in the assay on DU-145 and in the assay with MCF7 was > 100 µM (inactive) throughout. Moreover, the GI50 is > 100 µM (inactive) in the assay with LOX IMVI; > 100 µM (inactive) in the assay on U-251; > 100 µM (inactive) in the assay with HCT-116; > 100 µM (inactive) in the assay on OVCAR-4; > 100 µM (inactive) in the assay on SK-MEL-5; > 61.5 µM (inactive) in the assay on HT-29. Moreover, the GI50 is > 100 µM (inactive) in the assay with SNB-19; > 100 µM (inactive) in the assay with MDA-N; > 10 µM (inactive) in the assay with OVCAR-5; > 100 µM (inactive) in the assay with NCI-H23; > 100 µM (inactive) in the assay with IGROV-1; > 53.6 µM (inactive) in the assay on EKVX.

As for `CCN(CC)CCNc1ccc2ncn3c4ccc(OC)cc4c(=O)c1c23`, the GI50 with M19-MEL was 3.73 µM (inactive); with OVCAR-8 it was 0.836 µM (active); in the assay on T47D it was 20 µM (inactive); in the assay on DU-145, 8.28 µM (inactive); with MCF7 it was 57 µM (inactive); with LOX IMVI, 1.51 µM (inactive). Moreover, the GI50 was 1.38 µM (inactive) in the assay with U-251; 0.592 µM (active) with HCT-116; 1.74 µM (inactive) in the assay with OVCAR-4; 6.07 µM (inactive) with SK-MEL-5; 1.28 µM (inactive) in the assay on HT-29; 3.76 µM (inactive) in the assay on SNB-19. Further, the GI50 in the assay on CCRF-CEM is 1.34 µM (inactive); in the assay with MDA-N, 5.18 µM (inactive); in the assay on OVCAR-5, 8.61 µM (inactive); with SR, 1.85 µM (inactive); in the assay with NCI-H23 it was 4.79 µM (inactive); with IGROV-1, 4.35 µM (inactive). Moreover, the GI50 with EKVX was 14.9 µM (inactive).
